Measured values published in ChEMBL document CHEMBL1144455, “A small molecule-kinase interaction map for clinical kinase inhibitors” (Nat Biotechnol, 2005).

Key:
[1] = target: Tyrosine-protein kinase JAK2 (Homo sapiens, UniProt O60674)
[2] = target: Tyrosine-protein kinase CSK (Homo sapiens, UniProt P41240)
[3] = target: T1, Membrane-associated tyrosine- and threonine-specific cdc2-inhibitory kinase (Homo sapiens, UniProt Q99640)
T1 sequence (Q99640 whole entry): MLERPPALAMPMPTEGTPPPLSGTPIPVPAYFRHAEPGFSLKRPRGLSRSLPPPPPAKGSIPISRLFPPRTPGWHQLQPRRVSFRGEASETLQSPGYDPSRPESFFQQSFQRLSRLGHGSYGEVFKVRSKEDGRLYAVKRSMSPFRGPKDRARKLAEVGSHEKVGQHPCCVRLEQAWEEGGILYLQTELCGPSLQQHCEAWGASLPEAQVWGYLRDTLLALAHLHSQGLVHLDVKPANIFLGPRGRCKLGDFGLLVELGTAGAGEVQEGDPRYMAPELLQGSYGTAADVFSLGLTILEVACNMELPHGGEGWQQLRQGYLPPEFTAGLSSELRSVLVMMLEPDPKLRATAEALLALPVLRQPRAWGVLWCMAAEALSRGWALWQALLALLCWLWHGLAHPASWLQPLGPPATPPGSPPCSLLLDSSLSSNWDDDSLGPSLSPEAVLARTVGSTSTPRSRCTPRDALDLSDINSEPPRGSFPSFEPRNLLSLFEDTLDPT

[4] = target: Tyrosine-protein kinase BTK (Homo sapiens, UniProt Q06187)
Sequence of Tyrosine-protein kinase BTK (Q06187 whole entry): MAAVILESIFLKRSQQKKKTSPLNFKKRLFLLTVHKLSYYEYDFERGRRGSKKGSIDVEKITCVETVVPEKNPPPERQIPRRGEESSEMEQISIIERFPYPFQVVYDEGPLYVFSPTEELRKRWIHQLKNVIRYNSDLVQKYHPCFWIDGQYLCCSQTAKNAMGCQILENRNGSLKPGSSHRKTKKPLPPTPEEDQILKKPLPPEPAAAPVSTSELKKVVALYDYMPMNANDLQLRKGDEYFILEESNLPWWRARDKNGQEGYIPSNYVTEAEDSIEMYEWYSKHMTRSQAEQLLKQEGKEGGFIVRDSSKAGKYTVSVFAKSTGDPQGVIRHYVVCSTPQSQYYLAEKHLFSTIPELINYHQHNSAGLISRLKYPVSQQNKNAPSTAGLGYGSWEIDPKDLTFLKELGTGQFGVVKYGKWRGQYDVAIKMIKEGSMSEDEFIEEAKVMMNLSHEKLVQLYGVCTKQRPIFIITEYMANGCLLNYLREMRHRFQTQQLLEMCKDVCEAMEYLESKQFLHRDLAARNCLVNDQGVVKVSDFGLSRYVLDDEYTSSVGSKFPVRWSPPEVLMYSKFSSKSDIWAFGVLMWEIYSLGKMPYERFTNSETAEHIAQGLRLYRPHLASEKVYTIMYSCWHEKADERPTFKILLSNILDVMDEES

Activated CDC42 kinase 1 = Activated CDC42 kinase 1 (Homo sapiens, UniProt Q07912)
Sequence of Activated CDC42 kinase 1 (Q07912 whole entry): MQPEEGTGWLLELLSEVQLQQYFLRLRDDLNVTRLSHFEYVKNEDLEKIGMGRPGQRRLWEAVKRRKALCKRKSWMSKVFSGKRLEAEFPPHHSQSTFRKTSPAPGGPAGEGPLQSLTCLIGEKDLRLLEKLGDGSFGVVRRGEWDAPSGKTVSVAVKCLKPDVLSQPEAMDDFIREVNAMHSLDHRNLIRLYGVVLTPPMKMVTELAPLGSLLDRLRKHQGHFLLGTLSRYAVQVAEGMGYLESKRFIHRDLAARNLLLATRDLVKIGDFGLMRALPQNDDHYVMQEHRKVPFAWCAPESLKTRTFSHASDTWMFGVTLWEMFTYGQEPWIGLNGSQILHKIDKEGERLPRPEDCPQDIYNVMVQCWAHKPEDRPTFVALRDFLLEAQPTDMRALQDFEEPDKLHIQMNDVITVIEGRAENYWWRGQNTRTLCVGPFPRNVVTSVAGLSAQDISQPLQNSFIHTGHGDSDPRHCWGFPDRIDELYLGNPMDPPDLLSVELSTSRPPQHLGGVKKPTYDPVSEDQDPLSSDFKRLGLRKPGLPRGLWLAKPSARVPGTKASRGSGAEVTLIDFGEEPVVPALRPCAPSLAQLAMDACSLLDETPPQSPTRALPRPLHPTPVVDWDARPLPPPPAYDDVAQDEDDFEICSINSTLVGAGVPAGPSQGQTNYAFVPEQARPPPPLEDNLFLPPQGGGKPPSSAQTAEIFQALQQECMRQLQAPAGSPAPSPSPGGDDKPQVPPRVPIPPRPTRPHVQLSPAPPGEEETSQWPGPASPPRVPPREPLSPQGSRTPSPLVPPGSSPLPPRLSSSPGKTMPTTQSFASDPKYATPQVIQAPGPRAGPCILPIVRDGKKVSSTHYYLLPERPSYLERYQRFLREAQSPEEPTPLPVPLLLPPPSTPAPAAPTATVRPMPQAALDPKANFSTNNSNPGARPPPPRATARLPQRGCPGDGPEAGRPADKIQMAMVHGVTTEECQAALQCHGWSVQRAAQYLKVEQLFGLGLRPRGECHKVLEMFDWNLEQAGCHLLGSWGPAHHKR

[5] = target: Receptor tyrosine-protein kinase erbB-2 (Homo sapiens, UniProt P04626)
Sequence of Receptor tyrosine-protein kinase erbB-2 (P04626 whole entry): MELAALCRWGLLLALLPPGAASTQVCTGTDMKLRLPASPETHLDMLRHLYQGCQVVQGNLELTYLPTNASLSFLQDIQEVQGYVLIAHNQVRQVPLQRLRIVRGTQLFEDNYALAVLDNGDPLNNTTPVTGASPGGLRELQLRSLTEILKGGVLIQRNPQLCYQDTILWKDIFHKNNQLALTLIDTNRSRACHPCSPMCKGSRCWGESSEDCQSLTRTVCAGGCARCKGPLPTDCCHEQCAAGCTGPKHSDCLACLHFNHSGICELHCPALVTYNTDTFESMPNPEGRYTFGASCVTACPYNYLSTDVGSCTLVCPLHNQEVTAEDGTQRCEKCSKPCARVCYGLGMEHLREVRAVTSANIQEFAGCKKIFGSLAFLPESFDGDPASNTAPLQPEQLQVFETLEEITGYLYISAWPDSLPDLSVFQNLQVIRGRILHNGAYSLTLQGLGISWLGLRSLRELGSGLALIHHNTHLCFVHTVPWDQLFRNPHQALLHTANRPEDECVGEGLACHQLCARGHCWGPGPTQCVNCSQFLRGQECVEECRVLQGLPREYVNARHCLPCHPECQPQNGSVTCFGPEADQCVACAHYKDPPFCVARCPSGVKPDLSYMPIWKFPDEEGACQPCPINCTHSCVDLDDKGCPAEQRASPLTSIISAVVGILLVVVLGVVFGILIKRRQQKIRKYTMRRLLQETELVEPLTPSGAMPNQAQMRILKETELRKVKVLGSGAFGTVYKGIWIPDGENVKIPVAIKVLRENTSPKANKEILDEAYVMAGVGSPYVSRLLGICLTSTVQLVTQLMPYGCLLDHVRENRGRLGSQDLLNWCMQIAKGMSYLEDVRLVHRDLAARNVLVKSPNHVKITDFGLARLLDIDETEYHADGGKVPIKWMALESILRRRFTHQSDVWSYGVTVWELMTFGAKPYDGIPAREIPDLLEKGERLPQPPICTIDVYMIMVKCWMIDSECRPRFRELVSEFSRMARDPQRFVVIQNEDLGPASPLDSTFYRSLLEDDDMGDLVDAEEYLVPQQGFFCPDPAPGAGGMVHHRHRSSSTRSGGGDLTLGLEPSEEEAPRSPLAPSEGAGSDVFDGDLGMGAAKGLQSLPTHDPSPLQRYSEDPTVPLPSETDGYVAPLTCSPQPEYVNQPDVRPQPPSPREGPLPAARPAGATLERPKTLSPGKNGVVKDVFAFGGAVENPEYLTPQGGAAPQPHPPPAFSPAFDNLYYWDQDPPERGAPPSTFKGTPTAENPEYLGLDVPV

[6] = target: Tyrosine-protein kinase Lyn (Homo sapiens, UniProt P07948)
Sequence of Tyrosine-protein kinase Lyn (P07948 whole entry): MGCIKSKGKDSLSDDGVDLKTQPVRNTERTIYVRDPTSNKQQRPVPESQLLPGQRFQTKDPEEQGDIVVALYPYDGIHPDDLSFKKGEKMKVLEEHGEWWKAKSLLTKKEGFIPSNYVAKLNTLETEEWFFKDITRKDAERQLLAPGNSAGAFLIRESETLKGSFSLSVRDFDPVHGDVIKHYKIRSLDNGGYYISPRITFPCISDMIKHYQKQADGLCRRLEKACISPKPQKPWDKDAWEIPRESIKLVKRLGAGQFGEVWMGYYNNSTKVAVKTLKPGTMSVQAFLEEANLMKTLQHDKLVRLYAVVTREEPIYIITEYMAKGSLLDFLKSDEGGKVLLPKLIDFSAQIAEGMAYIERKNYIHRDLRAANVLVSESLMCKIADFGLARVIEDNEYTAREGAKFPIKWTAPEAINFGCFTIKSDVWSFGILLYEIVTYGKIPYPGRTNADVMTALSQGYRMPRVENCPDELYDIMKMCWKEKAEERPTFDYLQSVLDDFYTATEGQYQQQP

[7] = target: Ribosomal protein S6 kinase alpha-5 (Homo sapiens, UniProt O75582)
Sequence of Ribosomal protein S6 kinase alpha-5 (O75582 whole entry): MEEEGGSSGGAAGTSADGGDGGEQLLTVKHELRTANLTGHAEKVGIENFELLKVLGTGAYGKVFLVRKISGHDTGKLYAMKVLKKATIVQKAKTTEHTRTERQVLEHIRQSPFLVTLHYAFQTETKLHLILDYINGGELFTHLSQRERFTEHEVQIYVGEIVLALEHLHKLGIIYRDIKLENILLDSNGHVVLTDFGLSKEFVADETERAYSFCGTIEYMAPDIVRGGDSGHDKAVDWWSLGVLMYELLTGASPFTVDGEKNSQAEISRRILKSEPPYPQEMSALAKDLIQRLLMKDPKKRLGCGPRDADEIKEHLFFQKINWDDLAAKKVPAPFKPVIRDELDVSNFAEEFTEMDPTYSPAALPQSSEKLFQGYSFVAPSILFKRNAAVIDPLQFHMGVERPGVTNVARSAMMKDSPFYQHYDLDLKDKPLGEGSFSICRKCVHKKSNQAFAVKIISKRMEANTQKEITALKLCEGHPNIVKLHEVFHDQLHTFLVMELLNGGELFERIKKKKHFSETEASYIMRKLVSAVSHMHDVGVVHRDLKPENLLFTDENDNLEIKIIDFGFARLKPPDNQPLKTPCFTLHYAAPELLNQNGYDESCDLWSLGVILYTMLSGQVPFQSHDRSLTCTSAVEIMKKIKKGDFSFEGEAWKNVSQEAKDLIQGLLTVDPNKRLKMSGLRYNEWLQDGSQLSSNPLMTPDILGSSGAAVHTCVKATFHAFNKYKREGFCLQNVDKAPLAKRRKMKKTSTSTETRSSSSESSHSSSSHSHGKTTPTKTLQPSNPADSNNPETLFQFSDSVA

[8] = target: T2, Serine/threonine-protein kinase 4 (Homo sapiens, UniProt Q13043)
T2 sequence (Q13043 whole entry): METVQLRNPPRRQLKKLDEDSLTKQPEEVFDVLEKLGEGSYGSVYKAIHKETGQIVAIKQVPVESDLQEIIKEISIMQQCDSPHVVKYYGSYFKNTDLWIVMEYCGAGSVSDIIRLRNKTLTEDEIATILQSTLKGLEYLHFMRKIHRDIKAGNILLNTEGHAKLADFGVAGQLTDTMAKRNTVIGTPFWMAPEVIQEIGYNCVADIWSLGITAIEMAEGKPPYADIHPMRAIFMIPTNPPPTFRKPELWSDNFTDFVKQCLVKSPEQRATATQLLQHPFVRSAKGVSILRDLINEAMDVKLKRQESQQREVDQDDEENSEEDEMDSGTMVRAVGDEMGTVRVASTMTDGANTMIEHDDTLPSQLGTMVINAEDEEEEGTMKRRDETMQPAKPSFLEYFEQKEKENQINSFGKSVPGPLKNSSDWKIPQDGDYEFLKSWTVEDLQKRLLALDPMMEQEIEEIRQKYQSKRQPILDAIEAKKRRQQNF

Aurora kinase A = target: T3, Aurora kinase A (Homo sapiens, UniProt O14965)
T3 sequence (O14965 whole entry): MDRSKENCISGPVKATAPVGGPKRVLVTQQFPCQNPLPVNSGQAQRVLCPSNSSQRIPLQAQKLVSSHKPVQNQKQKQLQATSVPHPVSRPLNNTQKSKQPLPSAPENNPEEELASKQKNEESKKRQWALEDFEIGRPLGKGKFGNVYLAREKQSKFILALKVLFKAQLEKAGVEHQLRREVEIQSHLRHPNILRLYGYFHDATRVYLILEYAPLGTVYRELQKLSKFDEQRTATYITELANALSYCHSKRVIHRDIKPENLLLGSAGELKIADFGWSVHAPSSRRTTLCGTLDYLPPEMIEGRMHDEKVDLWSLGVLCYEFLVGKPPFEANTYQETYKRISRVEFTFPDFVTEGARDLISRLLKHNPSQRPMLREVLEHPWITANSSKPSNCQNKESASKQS

[9] = target: Serine/threonine-protein kinase 16 (Homo sapiens, UniProt O75716)
Sequence of Serine/threonine-protein kinase 16 (O75716 whole entry): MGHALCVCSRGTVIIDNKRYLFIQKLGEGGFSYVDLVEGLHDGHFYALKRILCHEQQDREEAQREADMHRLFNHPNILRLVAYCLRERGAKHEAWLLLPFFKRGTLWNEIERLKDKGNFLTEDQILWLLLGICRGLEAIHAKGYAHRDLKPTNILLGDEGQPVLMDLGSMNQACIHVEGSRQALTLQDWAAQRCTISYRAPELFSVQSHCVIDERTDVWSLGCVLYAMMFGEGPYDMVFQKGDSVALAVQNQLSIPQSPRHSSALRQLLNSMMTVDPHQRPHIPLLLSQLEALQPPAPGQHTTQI

[10] = target: T4, Serine/threonine-protein kinase 17A (Homo sapiens, UniProt Q9UEE5)
T4 sequence (Q9UEE5 whole entry): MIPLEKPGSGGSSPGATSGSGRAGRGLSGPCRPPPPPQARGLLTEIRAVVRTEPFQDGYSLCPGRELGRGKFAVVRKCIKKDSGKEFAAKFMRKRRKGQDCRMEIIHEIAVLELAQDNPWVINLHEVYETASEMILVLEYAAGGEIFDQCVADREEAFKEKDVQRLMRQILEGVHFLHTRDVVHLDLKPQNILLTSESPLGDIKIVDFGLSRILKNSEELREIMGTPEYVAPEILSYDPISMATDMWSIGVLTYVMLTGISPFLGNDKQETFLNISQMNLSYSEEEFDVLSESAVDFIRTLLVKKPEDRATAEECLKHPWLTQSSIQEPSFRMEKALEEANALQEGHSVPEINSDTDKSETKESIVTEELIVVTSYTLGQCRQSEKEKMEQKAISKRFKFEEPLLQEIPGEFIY

[11] = target: Dual specificity protein kinase CLK4 (Homo sapiens, UniProt Q9HAZ1)

Sequence of Tyrosine-protein kinase CSK (P41240 whole entry): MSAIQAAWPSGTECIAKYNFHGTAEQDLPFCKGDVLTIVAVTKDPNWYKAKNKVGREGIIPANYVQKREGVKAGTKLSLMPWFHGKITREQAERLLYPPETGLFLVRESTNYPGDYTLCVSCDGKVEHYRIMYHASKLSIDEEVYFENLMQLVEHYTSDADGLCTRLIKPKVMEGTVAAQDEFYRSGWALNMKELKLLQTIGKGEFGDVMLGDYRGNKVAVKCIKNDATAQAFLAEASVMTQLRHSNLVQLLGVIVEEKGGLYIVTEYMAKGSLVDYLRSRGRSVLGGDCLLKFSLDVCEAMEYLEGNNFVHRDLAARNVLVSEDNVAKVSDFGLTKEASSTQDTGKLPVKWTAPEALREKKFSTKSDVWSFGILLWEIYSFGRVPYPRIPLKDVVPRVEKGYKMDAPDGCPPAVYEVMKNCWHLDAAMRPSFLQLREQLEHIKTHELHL

Row | Structure (SMILES) | Kd [1] [nM] | Kd [2] [nM] | Kd [3] [nM] | Kd [4] [nM] | Kd (Activated CDC42 kinase 1) [nM] | Kd [5] [nM] | Kd [6] [nM] | Kd [7] [nM] | Kd [8] [nM] | Kd (Aurora kinase A) [nM] | Kd [9] [nM] | Kd [10] [nM] | Kd [11] [nM]
1 | CCOc1cc2ncc(C#N)c(Nc3ccc(F)c(Cl)c3)c2cc1NC(=O)/C=C/CN(C)C [PELITINIB] | 2000 | 2300 | 930 | 1500 | 890 | 77 | 960 | – | – | – | – | – | –
2 | Oc1c2ccccc2c2c3c(cccc13)N=N2 [SP-600125] | – | – | – | – | – | – | – | 1700 | 2200 | 980 | 510 | 2100 | 260
